In ChEMBL document CHEMBL4177712, “AMP and adenosine are both ligands for adenosine 2B receptor signaling” (Bioorg Med Chem Lett, 2018) one finds Activity data, which are given here for two compounds.

Activity calls are given as the source filed them. No cut-off for these calls is given here.

Test [1] has as its target T1, Adenosine receptor A2b (Homo sapiens) (UniProt P29275).
T1 sequence (whole entry): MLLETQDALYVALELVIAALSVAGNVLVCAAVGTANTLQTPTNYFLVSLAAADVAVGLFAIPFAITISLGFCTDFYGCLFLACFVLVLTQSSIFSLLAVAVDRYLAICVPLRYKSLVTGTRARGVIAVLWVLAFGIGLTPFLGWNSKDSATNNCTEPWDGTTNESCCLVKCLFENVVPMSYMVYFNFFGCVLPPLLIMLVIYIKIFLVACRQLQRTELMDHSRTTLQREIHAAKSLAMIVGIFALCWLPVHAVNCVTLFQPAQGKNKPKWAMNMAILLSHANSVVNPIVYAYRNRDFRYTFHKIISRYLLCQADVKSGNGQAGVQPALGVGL
As to the kind of experiment: Agonist activity at human A2B receptor expressed in CHO cells assessed as induction of calcium mobilization by Fluo-4 dye based fluorescence assay. It counts as functional, cell-based.

The target of test [2] is T1, Adenosine receptor A2b (Homo sapiens). As to the kind of experiment: Agonist activity at human A2B receptor expressed in CHOK1 cells expressing ADORA2B-CRE-bla assessed as induction of cAMP accumulation by FRET assay. The format is functional, cell-based.

Take `Nc1ncnc2c1ncn2[C@@H]1O[C@H](CO)[C@@H](O)[C@H]1O`: the result in test [1] was Active. Turning to `Nc1ncnc2c1ncn2[C@H]1O[C@H](COP(O)(O)=S)[C@@H](O)[C@H]1O`, the Activity result in test [1] is “Dose-dependent effect”. For the same compound, the result in test [2] was inactive.
